Results taken from patent publication US20060122165A1, “Crystalline cefdinir” (priority 2004, published 2006).

Columns and labels:
[1] = conversion of crystalline form B into form C on exposure to humidity or aqueous medium; format: physicochemical
Description: In another aspect of the invention, crystalline form C of cefdinir can be obtained by conversion of the crystalline form B of cefdinir, obtainable as described in US 2003/0204082 in Example 1, into crystalline form C of cefdinir. Cefdinir form B is in the form of a hydrate.
The equilibrating procedure of step a′) is preferably performed at a relative humidity of about 63% to about 75% , more preferably of about 65% to about 70%, such as of at 65% to 70%. Said equilibration may be performed in a gaseous atmosphere being e.g. air or nitrogen, preferably air having the above mentioned relative humidity. Above about 63% relative humidity, for example cefdinir form B crystals obtainable as described above convert to form C crystals. Form C crystals—once formed—are stable above a relative humidity of at least 45%.

[2] = stability of crystalline form at environmental relative humidity; format: physicochemical; conditions: form maintained as trihydrate

SMILES | relative humidity above which crystals convert to form C ([1]; equilibration in gaseous atmosphere (air or nitrogen)) | time for conversion into crystalline form C ([1]; exposure of pure crystalline form B to a relative humidity of at least about 65%) | time for conversion into crystalline form C ([1]; exposure of pure form B crystals to an aqueous suspending medium, preferably water) | relative humidity of environmental conditions at which the crystal form is stable [2]
C=CC1=C(C(=O)O)N2C(=O)C(NC(=O)C(=NO)c3csc(N)n3)[C@H]2SC1 (stereo partly shown) [crystalline form B of cefdinir, 7-[2-(2-aminothiazol-4-yl)-2-hydroxyiminoacetamido]-3-vinyl-3-cephem-4-carboxylic acid] | Above 63% | within minutes | within seconds | –
C=CC1=C(C(=O)O)N2C(=O)C(NC(=O)C(=NO)c3csc(N)n3)[C@H]2SC1.O.O.O (stereo partly shown) [crystalline form C of cefdinir, 7-[2-(2-aminothiazol-4-yl)-2-hydroxyiminoacetamido]-3-vinyl-3-cephem-4-carboxylic acid trihydrate] | – | – | – | at least 45%
